# Patent US20250143299A1, “METHODS AND COMPOSITIONS FOR CONTROLLING PESTS IN VEGETABLES” (Globachem NV, priority 2022, published 2025)
# Legend:
# Assay type in all cases: in vivo
# [1] = test system: Diabrotica speciosa; assay: Example 11 Trial 2 potato, Diabrotica speciosa (DIABSC) control; details: appl. AB
# Source text: Potatoes—Diabrotica speciosa (Cucurbit Beetle)—DIABSC A water volume of 400 L water/ha was used for each application. Application A made at the occurrence of the insects; application B was made 7 days later. Each plot was 15 m^2. 5.15 insects per 20 plants were present at the time of application.
# [2] = test system: Leptinotarsa decemlineata; assay: Example 8 Trial 1 potato, Leptinotarsa decemlineata (Colorado potato beetle) control; details: appl. AB, 8 DAB
# Source text: Potatoes—Leptinotarsa decemlineata (Colorado Potato Beetle)—LEPTNDE
# (§1) Trial 1: Potatoes, variety Lady Amarilla, 4 replicates per plot, each plot at least 25 m^2. A water volume of 200 L water/ha was used for each application. Two applications were made at a 14d interval.
# (§2) Application made at the occurrence of the insects. Application A was made at Stage BBCH 36, application B was made 14 days later at Stage BBCH 51.
# Insects present at the time of application: at App A 39/10 plants at App B in untreated: 35/10 plants.
# [3] = test system: Acyrthosiphon pisum; assay: Example 6 pea trial, Acyrthosiphon pisum (pea aphid) control; details: appl. A
# Source text: Peas—Acyrthosiphon pisum (Pea Aphid)
# Trial conducted on peas, variety Navarro, 4 replicates per plot. Each plot was at least 12 m^2, a water volume of 200 L water per ha was used for the application.
# Insects present at the time of application A: 106 aphids per 20 shoots. The stage of the crop at application A was BBCH 75-77, and at application B, (14 DAA) BBCH 79-81.
# [4] = test system: Tuta absoluta; assay: Example 2 tomato trial, Tuta absoluta (tomato leafminer) control; details: appl. AB
# Procedure: Tomato—Tuta absoluta (Tomato Leafminer)
# Trial conducted in 4 replicates on plots of 25 plants each. Application was made at the occurrence of the insects.
# Insects present at the time of application: at App A 0.3/plot, at App B in untreated: 34/plot
# Efficacy is assessed by checking on the leaves the % of damage caused by the insects.
# [5] = test system: Potato; assay: Example 8 Trial 1 phytotoxicity, general injury (PHYGEN) on potato; parameters: scale not given here; details: appl. AB
# Source text: as §1, §2
# [6] = test system: Aphis fabae; assay: Example 5 pea trial, Aphis fabae (black bean aphid) control; details: appl. AB
# Procedure: Peas—Aphis fabae (Black bean aphid)
# The trial was conducted on peas, variety Batuta, 4 replicates per plot. A water volume of 200 L water/ha was used for each application. Two applications were made, Application A was made at first infestation and Application B was made 14d later. Each plot at least 12 m^2.
# Insects present at the time of application: at App A 197/20 shoots, at App B in untreated: 443/20 shoots.
# [7] = test system: Spodoptera exigua; assay: Example 1 tomato plot trial, Spodoptera exigua (beet armyworm) control; details: appl. A, 15 DAA
# Procedure: Tomato—Spodoptera exigua (Beet Armyworm)
# Trial conducted in 4 replicates on plots of 10 plants each. Application A was made at the occurrence of the insects.
# The statistical design of this study was a completely randomized blocks design including 4 replicates. The homogeneity of variance was tested for all treatments and assessment dates by means of the Bartlett's test. In order to study the effect of the applied treatments for each assessment data, means were compared using Student-Newman-Keuls (p=0.05).
smiles,measurement,setting,value
"CCCCCCCCC(=O)O [PA, pelargonic acid]","# Insects, 20 plants","[1]; 487.5 g/ha (0.75 L/ha), 3 DAA",38.10b % UNCK
same,"# Insects, 20 plants","[1]; 487.5 g/ha (0.75 L/ha), 3 DAB",25.00ab % UNCK
same,"# Insects, 20 plants","[1]; 650 g/ha (1 L/ha), 3 DAA",61.90bc % UNCK
same,"# Insects, 20 plants","[1]; 650 g/ha (1 L/ha), 3 DAB",25.00ab % UNCK
same,"# Insects, 20 plants","[1]; 975 g/ha (1.5 L/ha), 7 DAA",100.00d % UNCK
same,"# Insects, 20 plants","[1]; 975 g/ha (1.5 L/ha), 7 DAB",100.00c % UNCK
same,"# Insects, 20 plants","[1]; 975 g/ha (1.5 L/ha), 10 DAB",100.00c % UNCK
same,COUINS # L1-L3/10 plants,[2]; 585 g/ha (0.9 L/ha),88.2 % UNCK
same,COUINS # L4/10 plants,[2]; 585 g/ha (0.9 L/ha),57.9 % UNCK
same,COUINS # L1-L3/10 plants,[2]; 975 g/ha (1.5 L/ha),17.6 % UNCK
same,COUINS # L4/10 plants,[2]; 975 g/ha (1.5 L/ha),57.9 % UNCK
same,COUINS # L1-L3/10 plants,[2]; 1300 g/ha (2.0 L/ha),82.4 % UNCK
same,COUINS # L4/10 plants,[2]; 1300 g/ha (2.0 L/ha),57.9 % UNCK
same,COUINS # L1-L3/10 plants,[2]; 2600 g/ha (4.0 L/ha),76.5 % UNCK
same,COUINS # L4/10 plants,[2]; 2600 g/ha (4.0 L/ha),68.4 % UNCK
same,"COUINS (count of insects), 20 shoots","[3]; 585 g/ha (0.9 L/ha), 3 DAA (1st column)",31.44 % UNCK
same,"COUINS (count of insects), 20 shoots","[3]; 585 g/ha (0.9 L/ha), 3 DAA (2nd column)",31.34 % UNCK
same,"COUINS (count of insects), 20 shoots","[3]; 585 g/ha (0.9 L/ha), 3 DAA (3rd column)",30.01 % UNCK
same,"COUINS (count of insects), 20 shoots","[3]; 975 g/ha (1.5 L/ha), 3 DAA (1st column)",34.03 % UNCK
same,"COUINS (count of insects), 20 shoots","[3]; 975 g/ha (1.5 L/ha), 3 DAA (2nd column)",33.84 % UNCK
same,"COUINS (count of insects), 20 shoots","[3]; 975 g/ha (1.5 L/ha), 3 DAA (3rd column)",35.76 % UNCK
same,"COUINS (count of insects), 20 shoots","[3]; 1300 g/ha (2.0 L/ha), 3 DAA (1st column)",52.54 % UNCK
same,"COUINS (count of insects), 20 shoots","[3]; 1300 g/ha (2.0 L/ha), 3 DAA (2nd column)",52.47 % UNCK
same,"COUINS (count of insects), 20 shoots","[3]; 1300 g/ha (2.0 L/ha), 3 DAA (3rd column)",53.62 % UNCK
same,"COUINS (count of insects), 20 shoots","[3]; 2600 g/ha (4.0 L/ha), 3 DAA (1st column)",65.75 % UNCK
same,"COUINS (count of insects), 20 shoots","[3]; 2600 g/ha (4.0 L/ha), 3 DAA (2nd column)",65.86 % UNCK
same,"COUINS (count of insects), 20 shoots","[3]; 2600 g/ha (4.0 L/ha), 3 DAA (3rd column)",65.31 % UNCK
same,# Damaged leaves,"[4]; 1300 g/ha (2 L/ha), 3 DAA",47 % UNCK
same,# Damaged leaves,"[4]; 1300 g/ha (2 L/ha), 3 DAB",31 % UNCK
same,# Damaged leaves,"[4]; 1300 g/ha (2 L/ha), 7 DAA",68 % UNCK
same,# Damaged leaves,"[4]; 1300 g/ha (2 L/ha), 7 DAB",32 % UNCK
same,# Damaged leaves,"[4]; 1300 g/ha (2 L/ha), 14 DAA",70 % UNCK
same,# Damaged leaves,"[4]; 1950 g/ha (3 L/ha), 3 DAA",51 % UNCK
same,# Damaged leaves,"[4]; 1950 g/ha (3 L/ha), 3 DAB",42 % UNCK
same,# Damaged leaves,"[4]; 1950 g/ha (3 L/ha), 7 DAA",69 % UNCK
same,# Damaged leaves,"[4]; 1950 g/ha (3 L/ha), 7 DAB",46 % UNCK
same,# Damaged leaves,"[4]; 1950 g/ha (3 L/ha), 14 DAA",72 % UNCK
same,# Damaged leaves,"[4]; 2600 g/ha (4 L/ha), 3 DAA",58 % UNCK
same,# Damaged leaves,"[4]; 2600 g/ha (4 L/ha), 3 DAB",47 % UNCK
same,# Damaged leaves,"[4]; 2600 g/ha (4 L/ha), 7 DAA",74 % UNCK
same,# Damaged leaves,"[4]; 2600 g/ha (4 L/ha), 7 DAB",42 % UNCK
same,# Damaged leaves,"[4]; 2600 g/ha (4 L/ha), 14 DAA",78 % UNCK
same,# Damaged leaves,"[4]; 5200 g/ha (8 L/ha), 3 DAA",59 % UNCK
same,# Damaged leaves,"[4]; 5200 g/ha (8 L/ha), 3 DAB",42 % UNCK
same,# Damaged leaves,"[4]; 5200 g/ha (8 L/ha), 7 DAA",75 % UNCK
same,# Damaged leaves,"[4]; 5200 g/ha (8 L/ha), 7 DAB",49 % UNCK
same,# Damaged leaves,"[4]; 5200 g/ha (8 L/ha), 14 DAA",75 % UNCK
same,Phytotoxicity - General Injury (PHYGEN),"[5]; 585 g/ha (0.9 L/ha), 3 DAB",0
same,Phytotoxicity - General Injury (PHYGEN),"[5]; 585 g/ha (0.9 L/ha), 7 DAA",0
same,Phytotoxicity - General Injury (PHYGEN),"[5]; 585 g/ha (0.9 L/ha), 8 DAB",0
same,Phytotoxicity - General Injury (PHYGEN),"[5]; 585 g/ha (0.9 L/ha), 15 DAA",0
same,Phytotoxicity - General Injury (PHYGEN),"[5]; 975 g/ha (1.5 L/ha), 3 DAB",0
same,Phytotoxicity - General Injury (PHYGEN),"[5]; 975 g/ha (1.5 L/ha), 7 DAA",1.3
same,Phytotoxicity - General Injury (PHYGEN),"[5]; 975 g/ha (1.5 L/ha), 8 DAB",0
same,Phytotoxicity - General Injury (PHYGEN),"[5]; 975 g/ha (1.5 L/ha), 15 DAA",0
same,Phytotoxicity - General Injury (PHYGEN),"[5]; 1300 g/ha (2.0 L/ha), 3 DAB",1
same,Phytotoxicity - General Injury (PHYGEN),"[5]; 1300 g/ha (2.0 L/ha), 7 DAA",1
same,Phytotoxicity - General Injury (PHYGEN),"[5]; 1300 g/ha (2.0 L/ha), 8 DAB",1
same,Phytotoxicity - General Injury (PHYGEN),"[5]; 1300 g/ha (2.0 L/ha), 15 DAA",0
same,Phytotoxicity - General Injury (PHYGEN),"[5]; 2600 g/ha (4.0 L/ha), 3 DAB",4.5
same,Phytotoxicity - General Injury (PHYGEN),"[5]; 2600 g/ha (4.0 L/ha), 7 DAA",6
same,Phytotoxicity - General Injury (PHYGEN),"[5]; 2600 g/ha (4.0 L/ha), 8 DAB",5
same,Phytotoxicity - General Injury (PHYGEN),"[5]; 2600 g/ha (4.0 L/ha), 15 DAA",4
same,"COUINS (count of insects), 20 shoots","[6]; 585 g/ha (0.9 L/ha), 3 DAA",7.66 % UNCK
same,"COUINS (count of insects), 20 shoots","[6]; 585 g/ha (0.9 L/ha), 3 DAB",32.43 % UNCK
same,"COUINS (count of insects), 20 shoots","[6]; 585 g/ha (0.9 L/ha), 7 DAA",17.73 % UNCK
same,"COUINS (count of insects), 20 shoots","[6]; 585 g/ha (0.9 L/ha), 7 DAB",33.74 % UNCK
same,"COUINS (count of insects), 20 shoots","[6]; 975 g/ha (1.5 L/ha), 3 DAA",9.21 % UNCK
same,"COUINS (count of insects), 20 shoots","[6]; 975 g/ha (1.5 L/ha), 3 DAB",39.08 % UNCK
same,"COUINS (count of insects), 20 shoots","[6]; 975 g/ha (1.5 L/ha), 7 DAA",22.27 % UNCK
same,"COUINS (count of insects), 20 shoots","[6]; 975 g/ha (1.5 L/ha), 7 DAB",51.21 % UNCK
same,"COUINS (count of insects), 20 shoots","[6]; 1300 g/ha (2.0 L/ha), 3 DAA",44.25 % UNCK
same,"COUINS (count of insects), 20 shoots","[6]; 1300 g/ha (2.0 L/ha), 3 DAB",65.79 % UNCK
same,"COUINS (count of insects), 20 shoots","[6]; 1300 g/ha (2.0 L/ha), 7 DAA",63.58 % UNCK
same,"COUINS (count of insects), 20 shoots","[6]; 1300 g/ha (2.0 L/ha), 7 DAB",65.14 % UNCK
same,"COUINS (count of insects), 20 shoots","[6]; 2600 g/ha (4.0 L/ha), 3 DAA",72.11 % UNCK
same,"COUINS (count of insects), 20 shoots","[6]; 2600 g/ha (4.0 L/ha), 3 DAB",76.77 % UNCK
same,"COUINS (count of insects), 20 shoots","[6]; 2600 g/ha (4.0 L/ha), 7 DAA",82.08 % UNCK
same,"COUINS (count of insects), 20 shoots","[6]; 2600 g/ha (4.0 L/ha), 7 DAB",76.67 % UNCK
same,"Damage severity (1-4), plant",[7]; 650 g/ha (1 L/ha),61.37 a % UNCK
same,Nr damaged leaves,[7]; 650 g/ha (1 L/ha),63.30 a % UNCK
same,Nr of larvae,[7]; 650 g/ha (1 L/ha),73.85 b % UNCK
same,"Damage severity (1-4), plant",[7]; 1300 g/ha (2 L/ha),61.01 a % UNCK
same,Nr damaged leaves,[7]; 1300 g/ha (2 L/ha),71.72 a % UNCK
same,Nr of larvae,[7]; 1300 g/ha (2 L/ha),79.47 b % UNCK
same,"Damage severity (1-4), plant",[7]; 2600 g/ha (4 L/ha),64.85 a % UNCK
same,Nr damaged leaves,[7]; 2600 g/ha (4 L/ha),63.54 a % UNCK
same,Nr of larvae,[7]; 2600 g/ha (4 L/ha),90.18 a % UNCK
